Numbers after ± are expanded uncertainties.

For data set [1] the following is noted: Crystal; DTA.
Data set [2] can be described thus: Molar enthalpy of transition or fusion. To be noted: Crystal; DSC.

Turning to `Nc1ccc(S(=O)(=O)Nc2ccccc2Cl)c(Cl)c1` [4-amino-2-chloro-N-(2-chlorophenyl)benzenesulfonamide], the Normal melting temperature in data set [1] was determined as 232 ± 0.5 °C. Further, in data set [2], the “Molar enthalpy of transition or fusion” value is 12.3 ± 0.335 kcal/mol.

Turning to `Nc1ccc(S(=O)(=O)Nc2cc(Cl)ccc2Cl)cc1` [4-amino-N-(2,5-dichlorophenyl)benzenesulfonamide], the Normal melting temperature in data set [1] is 172.8 ± 0.5 °C. The “Molar enthalpy of transition or fusion” value in data set [2] stood at 9.87 ± 0.311 kcal/mol.

Turning to `CNS(=O)(=O)c1ccc(N)cc1` [4-amino-N-methylbenzenesulfonamide], the Normal melting temperature in data set [1] was found to be 109.1 ± 0.5 °C. The “Molar enthalpy of transition or fusion” value in data set [2] was 4.09 ± 0.263 kcal/mol.

In the case of `Nc1ccc(S(=O)(=O)Nc2cc(Cl)c(Cl)cc2Cl)cc1` [4-amino-N-(2,4,5-trichlorophenyl)benzenesulfonamide], the Normal melting temperature in data set [1] was 188.1 ± 0.5 °C. Moreover, the “Molar enthalpy of transition or fusion” value in data set [2] came out at 9.49 ± 0.311 kcal/mol.

Take `Cc1cc(N)ccc1S(=O)(=O)Nc1ccccc1Cl` [4-amino-N-(2-chlorophenyl)-2-methylbenzenesulfonamide]: the Normal melting temperature in data set [1] was determined as 206.4 ± 0.5 °C. Besides, in data set [2], the “Molar enthalpy of transition or fusion” value stood at 11.3 ± 0.335 kcal/mol.

For `Nc1ccc(S(=O)(=O)N(c2ccccc2)c2ccccc2)cc1` [4-amino-N,N-diphenylbenzenesulfonamide], the Normal melting temperature in data set [1] was determined as 179.5 ± 0.5 °C. Further, in data set [2], the “Molar enthalpy of transition or fusion” value was 8.39 ± 0.287 kcal/mol.

`O=S(=O)(Nc1ccccc1Cl)c1ccccc1` [N-(2-chlorophenyl)benzenesulfonamide]: in data set [1], the Normal melting temperature was 125.1 ± 0.5 °C. Moreover, in data set [2], the “Molar enthalpy of transition or fusion” value was found to be 8.01 ± 0.287 kcal/mol.

As to `CCN(CC)S(=O)(=O)c1ccc(N)cc1` [4-amino-N,N-diethylbenzenesulfonamide], the Normal melting temperature in data set [1] turned out to be 105.7 ± 0.5 °C. Besides, the “Molar enthalpy of transition or fusion” value in data set [2] stood at 4.64 ± 0.263 kcal/mol.

On to `Cc1ccc(NS(=O)(=O)c2ccc([N+](=O)[O-])cc2)nc1` [N-(5-methylpyridin-2-yl)-4-nitrobenzenesulfonamide], for which, in data set [1], the Normal melting temperature is 161.0 ± 0.5 °C. Besides, the “Molar enthalpy of transition or fusion” value in data set [2] worked out at 10.9 ± 0.311 kcal/mol.

As for `CCc1ccc(NS(=O)(=O)c2ccc(N)cc2)cc1` [4-amino-N-(4-ethylphenyl)benzenesulfonamide], in data set [1], the Normal melting temperature stood at 163.1 ± 0.5 °C. Moreover, in data set [2], the “Molar enthalpy of transition or fusion” value came to 8.68 ± 0.287 kcal/mol.

Take `Cc1ccc(Cl)cc1NS(=O)(=O)c1ccc(N)cc1` [4-amino-N-(5-chloro-2-methylphenyl)benzenesulfonamide]: in data set [1], the Normal melting temperature came to 149.6 ± 0.5 °C. In addition, the “Molar enthalpy of transition or fusion” value in data set [2] turned out to be 8.8 ± 0.287 kcal/mol.

In the case of `Nc1ccc(S(=O)(=O)Nc2cccc(Cl)c2Cl)cc1` [4-amino-N-(2,3-dichlorophenyl)benzenesulfonamide], the Normal melting temperature in data set [1] was 181.2 ± 0.5 °C. Moreover, the “Molar enthalpy of transition or fusion” value in data set [2] turned out to be 9.78 ± 0.311 kcal/mol.

Regarding `Cc1ccc(NS(=O)(=O)c2ccc(N)cc2)cc1Cl` [4-amino-N-(3-chloro-4-methylphenyl)benzenesulfonamide], in data set [1], the Normal melting temperature was determined as 204.5 ± 0.5 °C. Besides, in data set [2], the “Molar enthalpy of transition or fusion” value was found to be 10.9 ± 0.311 kcal/mol.

Consider `CC(=O)Nc1ccncc1NS(=O)(=O)c1ccc([N+](=O)[O-])cc1` [N-[3-[[(4-nitrophenyl)sulfonyl]amino]-4-pyridinyl]-acetamide], for which the Normal melting temperature in data set [1] was 238.0 ± 0.5 °C. For the same compound, the “Molar enthalpy of transition or fusion” value in data set [2] amounted to 9.89 ± 0.311 kcal/mol.

As for `COc1ccc(NS(=O)(=O)c2ccc(N)cc2)cc1` [4-amino-N-(4-methoxyphenyl)benzenesulfonamide], the Normal melting temperature in data set [1] amounted to 194.2 ± 0.5 °C. In data set [2], the “Molar enthalpy of transition or fusion” value is 9.23 ± 0.311 kcal/mol.

Turning to `Nc1ccc(S(=O)(=O)Nc2ccc([N+](=O)[O-])cc2Br)cc1` [4-amino-N-(2-bromo-4-nitrophenyl)benzenesulfonamide], in data set [1], the Normal melting temperature was 188 ± 0.5 °C. Moreover, the “Molar enthalpy of transition or fusion” value in data set [2] was 9.46 ± 0.311 kcal/mol.

On to `Cc1cc(N)ccc1S(=O)(=O)Nc1ccc(Cl)cc1` [4-amino-N-(4-chlorophenyl)-2-methylbenzenesulfonamide], for which the Normal melting temperature in data set [1] was 173.4 ± 0.5 °C. Also, the “Molar enthalpy of transition or fusion” value in data set [2] was 8.53 ± 0.287 kcal/mol.

Turning to `CCOC(=O)c1ccc(NS(=O)(=O)c2ccccc2)nc1` [ethyl 6-(phenylsulfonamido)nicotinate], the Normal melting temperature in data set [1] came to 154.8 ± 0.5 °C. Also, in data set [2], the “Molar enthalpy of transition or fusion” value is 5.38 ± 0.263 kcal/mol.

On to `O=S(=O)(Nc1ncccc1Cl)c1ccccc1` [N-(3-chloro-2-pyridinyl)benzenesulfonamide], for which the Normal melting temperature in data set [1] was determined as 131.0 ± 0.5 °C. Besides, the “Molar enthalpy of transition or fusion” value in data set [2] worked out at 6.72 ± 0.287 kcal/mol.

For the compound `O=[N+]([O-])c1ccccc1NS(=O)(=O)c1ccccc1` [N-(2-nitrophenyl)benzenesulfonamide], the Normal melting temperature in data set [1] worked out at 98.7 ± 0.5 °C. Also, the “Molar enthalpy of transition or fusion” value in data set [2] was determined as 5.33 ± 0.263 kcal/mol.

In the case of `O=S(=O)(Nc1cccc(Cl)c1Cl)c1ccccc1` [N-(2,3-dichlorophenyl)benzenesulfonamide], the Normal melting temperature in data set [1] was determined as 114.1 ± 0.5 °C. The “Molar enthalpy of transition or fusion” value in data set [2] turned out to be 6.5 ± 0.263 kcal/mol.

Turning to `Nc1ccc(S(=O)(=O)Nc2ccc(Cl)cc2)c(Cl)c1` [4-amino-2-chloro-N-(4-chlorophenyl)benzenesulfonamide], the Normal melting temperature in data set [1] turned out to be 195.6 ± 0.5 °C. In data set [2], the “Molar enthalpy of transition or fusion” value was found to be 8.34 ± 0.287 kcal/mol.

For the compound `Nc1ccc(S(=O)(=O)Nc2ccc(Cl)cc2)cc1` [4-amino-N-(4-chlorophenyl)benzenesulfonamide], in data set [1], the Normal melting temperature turned out to be 194.8 ± 0.5 °C. Moreover, in data set [2], the “Molar enthalpy of transition or fusion” value was found to be 5.69 ± 0.263 kcal/mol.

With `Cc1cc(Cl)ccc1NS(=O)(=O)c1ccc(N)cc1` [4-amino-N-(4-chloro-2-methylphenyl)benzenesulfonamide], the Normal melting temperature in data set [1] came to 149.6 ± 0.5 °C. Further, in data set [2], the “Molar enthalpy of transition or fusion” value was 8.8 ± 0.287 kcal/mol.

In the case of `CN(C)S(=O)(=O)c1ccc(N)cc1` [4-amino-N,N-dimethylbenzenesulfonamide], in data set [1], the Normal melting temperature was 171.5 ± 0.5 °C. The “Molar enthalpy of transition or fusion” value in data set [2] was determined as 7.1 ± 0.287 kcal/mol.

For the compound `Cc1cc(N)ccc1S(=O)(=O)Nc1ccccc1[N+](=O)[O-]` [4-amino-2-methyl-N-(2-nitrophenyl)benzenesulfonamide], the Normal melting temperature in data set [1] turned out to be 178.2 ± 0.5 °C. The “Molar enthalpy of transition or fusion” value in data set [2] came out at 9.56 ± 0.311 kcal/mol.

As to `O=[N+]([O-])c1ccc(S(=O)(=O)Nc2nccs2)cc1` [4-nitro-N-2-thiazolylbenzenesulfonamide], in data set [1], the Normal melting temperature came out at 256.6 ± 0.5 °C. Also, in data set [2], the “Molar enthalpy of transition or fusion” value was determined as 7.6 ± 0.287 kcal/mol.

Consider `O=S(=O)(Nc1ccc(Cl)cc1)c1ccccc1` [N-(4-chlorophenyl)benzenesulfonamide], for which the Normal melting temperature in data set [1] came to 121.5 ± 0.5 °C. Further, the “Molar enthalpy of transition or fusion” value in data set [2] amounted to 6.17 ± 0.263 kcal/mol.

As for `Cc1ccc(NS(=O)(=O)c2ccc(N)cc2)c(Cl)c1` [4-amino-N-(2-chloro-4-methylphenyl)benzenesulfonamide], the Normal melting temperature in data set [1] was determined as 155.7 ± 0.5 °C. Moreover, in data set [2], the “Molar enthalpy of transition or fusion” value is 7.58 ± 0.287 kcal/mol.

In the case of `O=S(=O)(Nc1ccccc1)c1ccccc1` [N-phenylbenzenesulfonamide], the Normal melting temperature in data set [1] was 110.4 ± 0.5 °C. For the same compound, the “Molar enthalpy of transition or fusion” value in data set [2] stood at 5.62 ± 0.263 kcal/mol.

For the origin of these results see the NIST ThermoML archive (doi:10.1021/je500918t).
